≈ marks a conversion by molar mass, not a printed value.
Assay: Solubility in water by HPLC
Format: physicochemical

## CC[C@H](C)[C@H](NC(=O)[C@H](C)NC(=O)CNC(=O)[C@H](CCCCN)NC(=O)[C@H](CC(N)=O)NC(=O)[C@H](CO)NC(=O)CNC(=O)[C@@H](NC(=O)[C@H](CC(=O)O)NC(=O)[C@H](C)NC(=O)[C@H](Cc1ccccc1)NC(=O)[C@H](Cc1ccccc1)NC(=O)[C@@H](NC(=O)[C@H](CC(C)C)NC(=O)[C@H](CCCCN)NC(=O)[C@H](CCC(N)=O)NC(=O)[C@H](Cc1cnc[nH]1)NC(=O)[C@H](Cc1cnc[nH]1)NC(=O)[C@@H](NC(=O)[C@H](CCC(=O)O)NC(=O)[C@H](Cc1ccc(O)cc1)NC(=O)CNC(=O)[C@H](CO)NC(=O)[C@H](CC(=O)O)NC(=O)[C@H](Cc1cnc[nH]1)NC(=O)[C@H](CCCNC(=N)N)NC(=O)[C@H](Cc1ccccc1)NC(=O)[C@H](CCC(=O)O)NC(=O)[C@H](C)NC(=O)[C@@H](N)CC(=O)O)C(C)C)C(C)C)C(C)C)C(=O)N[C@H](C(=O)NCC(=O)N[C@@H](CC(C)C)C(=O)N[C@@H](CCSC)C(=O)N[C@H](C(=O)NCC(=O)NCC(=O)N[C@H](C(=O)N[C@H](C(=O)N[C@H](C(=O)N[C@@H](C)C(=O)O)[C@@H](C)CC)C(C)C)C(C)C)C(C)C)[C@@H](C)CC
  solubility: 1500 µg/mL (≈ 342 µM)

From ChEMBL document CHEMBL1155268, “Synthesis of amyloid beta peptide 1-42 (E22Delta) click peptide: pH-triggered in situ production of its native form” (Bioorg Med Chem, 2009)
